These results are taken from US12679843B2, “Pyrrolopyrimidine amines as complement inhibitors” (BioCryst Pharmaceuticals, Inc., priority 2020, dated 2026).

Molecules are shown by their SMILES.

This test has as its target Factor D (Homo sapiens, UniProt P00746). The experiment in a line: Factor D esterolytic assay (Z-Lys-SBzl thioester substrate, DTNB, 405 nm). Particulars: substrate Z-Lys-SBzl 1.29 mM, 100 mM HEPES, 500 mM NaCl, pH 7.5, 10% DMSO, tested a minimum of three times. It counts as biochemical. The method, boiled down:
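Human Factor D hydrolysis of Z-Lys-SBzl (1.29 mM) monitored at 405 nm via DTNB thiol detection for 600 s, 690 nm background subtracted. Buffer 100 mM HEPES, 500 mM NaCl, pH 7.5, 10% DMSO; substrate added immediately or after room-temperature preincubation. IC50 from percent inhibition of rate, at least three tests.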

Chain of Factor D (P00746 26-253): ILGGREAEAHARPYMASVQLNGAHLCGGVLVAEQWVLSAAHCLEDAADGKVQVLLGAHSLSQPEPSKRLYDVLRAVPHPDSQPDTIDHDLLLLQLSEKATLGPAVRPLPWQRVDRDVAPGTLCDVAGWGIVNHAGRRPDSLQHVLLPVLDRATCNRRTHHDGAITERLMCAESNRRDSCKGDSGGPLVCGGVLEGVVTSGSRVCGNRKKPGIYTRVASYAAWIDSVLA

With `Nc1ncc2ncn(CC(=O)N3[C@@H]4C[C@@H]4C[C@H]3C(=O)Nc3cccc(Br)n3)c2n1` [Compound 89b, (1R,3S,5R)-2-(2-(2-amino-9H-purin-9-yl)acetyl)-N-(6-bromopyridin-2-yl)-2-azabicyclo[3.1.0]hexane-3-carboxamide], the IC50 fell in the range of 100 to 1000 nM.

In the case of `Nc1nc(Cl)nc2c1ccn2CC(=O)N1[C@@H]2C[C@@H]2C[C@H]1C(=O)Nc1cccc(Br)n1` [Compound 90d, (1R,3S,5R)-2-(2-(4-amino-2-chloro-7H-pyrrolo[2,3-d]pyrimidin-7-yl)acetyl)-N-(6-bromopyridin-2-yl)-2-azabicyclo[3.1.0]hexane-3-carboxamide], the IC50 was > 1000 nM.

In the case of `Nc1ncnc2c1ncn2CC(=O)N1[C@@H]2C[C@@H]2C[C@H]1C(=O)NCc1cccc(Cl)c1F` [Compound 91a, (1R,3S,5R)-2-(2-(6-amino-9H-purin-9-yl)acetyl)-N-(3-chloro-2-fluorobenzyl)-2-azabicyclo[3.1.0]hexane-3-carboxamide], the IC50 is < 100 nM.

On to `Nc1nc(N)c2ncn(CC(=O)N3[C@@H]4C[C@@H]4C[C@H]3C(=O)Nc3cccc(Br)n3)c2n1` [Compound 92b, (1R,3S,5R)—N-(6-bromopyridin-2-yl)-2-(2-(2,6-diamino-9H-purin-9-yl)acetyl)-2-azabicyclo[3.1.0]hexane-3-carboxamide], for which the IC50 is > 1000 nM.

`Nc1ncnc2c1ncn2CC(=O)N1C[C@H](F)C[C@H]1C(=O)Nc1cccc(Br)n1` [Compound 93a, (2S,4R)-1-(2-(6-amino-9H-purin-9-yl)acetyl)-N-(6-bromopyridin-2-yl)-4-fluoropyrrolidine-2-carboxamide]: the IC50 lay within 100 to 1000 nM.

On to `Nc1ncnc2c1ncn2CC(=O)N1[C@@H]2C[C@@H]2C[C@H]1C(=O)OCc1ccccc1` [Compound 94b, (1R,3S,5R)-benzyl 2-(2-(6-amino-9H-purin-9-yl)acetyl)-2-azabicyclo[3.1.0]hexane-3-carboxylate], for which the IC50 is > 1000 nM.

Consider `CC(C)(C)CCNC(=O)[C@@H]1C[C@H]2C[C@H]2N1C(=O)Cn1cnc2c(N)ncnc21` [Compound 95c, (1R,3S,5R)-2-(2-(6-amino-9H-purin-9-yl)acetyl)-N-(3,3-dimethylbutyl)-2-azabicyclo[3.1.0]hexane-3-carboxamide], for which the IC50 is > 1000 nM.

Consider `CN(C)c1nc(N)c2ncn(CC(=O)N3[C@@H]4C[C@@H]4C[C@H]3C(=O)NCc3cccc(Cl)c3F)c2n1` [Compound 96e, (1R,3S,5R)-2-(2-(6-amino-2-(dimethylamino)-9H-purin-9-yl)acetyl)-N-(3-chloro-2-fluorobenzyl)-2-azabicyclo[3.1.0]hexane-3-carboxamide], for which the IC50 was > 1000 nM.

Take `CC1(C)CCCC(NC(=O)[C@@H]2C[C@H]3C[C@H]3N2C(=O)Cn2cnc3c(N)ncnc32)C1` (stereo partly drawn) [Compound 97b, (1R,3S,5R)-2-(2-(6-amino-9H-purin-9-yl)acetyl)-N-(3,3-dimethylcyclohexyl)-2-azabicyclo[3.1.0]hexane-3-carboxamide]: the IC50 was > 1000 nM.

Turning to `Nc1ncnc2c1ncn2CC(=O)N1[C@@H]2C[C@@H]2C[C@H]1C(=O)N[C@@H]1C[C@H]1c1ccccc1Cl` [Compound 98b, (1R,3S,5R)-2-(2-(6-amino-9H-purin-9-yl)acetyl)-N-((1R,2S)-2-(2-chlorophenyl)cyclopropyl)-2-azabicyclo[3.1.0]hexane-3-carboxamide], the concentration for half-maximal inhibition (IC50) was 100 to 1000 nM.

With `Nc1ncnc2c1ncn2CC(=O)N1[C@@H]2C[C@@H]2C[C@H]1C(=O)NCCOC(F)(F)F` [Compound 99b, (1R,3S,5R)-2-(2-(6-amino-9H-purin-9-yl)acetyl)-N-(2-(trifluoromethoxy)ethyl)-2-azabicyclo[3.1.0]hexane-3-carboxamide], the concentration for half-maximal inhibition (IC50) was > 1000 nM.

In the case of `CC1CC(CNC(=O)[C@@H]2C[C@H]3C[C@H]3N2C(=O)Cn2cnc3c(N)ncnc32)C1` (stereo partly drawn) [Compound 100b, (1R,3S,5R)-2-(2-(6-amino-9H-purin-9-yl)acetyl)-N-((3-methylcyclobutyl)methyl)-2-azabicyclo[3.1.0]hexane-3-carboxamide], the IC50 is > 1000 nM.

On to `Nc1ncnc2c1ncn2CC(=O)N1[C@@H]2C[C@@H]2C[C@H]1C(=O)NCc1ccccc1` [Compound 101b, (1R,3S,5R)-2-(2-(6-amino-9H-purin-9-yl)acetyl)-N-benzyl-2-azabicyclo[3.1.0]hexane-3-carboxamide], for which the IC50 is 100 to 1000 nM.

`Nc1ncnc2c1ncn2CC(=O)N1[C@@H]2C[C@@H]2C[C@H]1C(=O)NC1CCCC(Cl)(Cl)C1` (stereo partly drawn) [Compound 102b, (1R,3S,5R)-2-(2-(6-amino-9H-purin-9-yl)acetyl)-N-(3,3-dichlorocyclohexyl)-2-azabicyclo[3.1.0]hexane-3-carboxamide]: the IC50 is 100 to 1000 nM.

As for `Nc1ncnc2c1ncn2CC(=O)N1[C@@H]2C[C@@H]2C[C@H]1C(=O)NCC1CC1(Cl)Cl` (stereo partly drawn) [Compound 103b, (1R,3S,5R)-2-(2-(6-amino-9H-purin-9-yl)acetyl)-N-((2,2-dichlorocyclopropyl)methyl)-2-azabicyclo[3.1.0]hexane-3-carboxamide], the IC50 lay within 100 to 1000 nM.

With `Nc1ncnc2c1ncn2CC(=O)N1C[C@H](F)C[C@H]1C(=O)NCc1cccc(Cl)c1F` [Compound 104a, (2S,4R)-1-(2-(6-amino-9H-purin-9-yl)acetyl)-N-(3-chloro-2-fluorobenzyl)-4-fluoropyrrolidine-2-carboxamide], the 50% inhibitory concentration (IC50) was < 100 nM.

Regarding `Nc1ncnc2c1ncn2CC(=O)N1CCS[C@H]1C(=O)NCc1cccc(Cl)c1F` [Compound 105b, (S)-3-(2-(6-amino-9H-purin-9-yl)acetyl)-N-(3-chloro-2-fluorobenzyl)thiazolidine-2-carboxamide], the IC50 was in the range of 100 to 1000 nM.

Consider `Nc1ncnc2c1ncn2CC(=O)N1[C@@H]2C[C@@H]2C[C@H]1C(=O)Nc1cccc(OC(F)(F)F)c1` [Compound 107b, (1R,3S,5R)-2-(2-(6-amino-9H-purin-9-yl)acetyl)-N-(3-(trifluoromethoxy)phenyl)-2-azabicyclo[3.1.0]hexane-3-carboxamide], for which the concentration for half-maximal inhibition (IC50) was > 1000 nM.

Regarding `COc1cccc(NC(=O)[C@@H]2C[C@H]3C[C@H]3N2C(=O)Cn2cnc3c(N)ncnc32)c1F` [Compound 108b, (1R,3S,5R)-2-(2-(6-amino-9H-purin-9-yl)acetyl)-N-(2-fluoro-3-methoxyphenyl)-2-azabicyclo[3.1.0]hexane-3-carboxamide], the half-maximal inhibitory concentration (IC50) was > 1000 nM.

In the case of `Nc1ncnc2c1ncn2CC(=O)N1[C@H](C(=O)NCc2cccc(Cl)c2F)C[C@@H]2C[C@@H]21` [Compound 109e, (1S,3S,5S)-2-(2-(6-amino-9H-purin-9-yl)acetyl)-N-(3-chloro-2-fluorobenzyl)-2-azabicyclo[3.1.0]hexane-3-carboxamide], the IC50 fell in the range of 100 to 1000 nM.

Take `Nc1ncnc2c1nc(Br)n2CC(=O)N1C[C@H](F)C[C@H]1C(=O)NCc1cccc(Cl)c1F` [Compound 110d, (2S,4R)-1-(2-(6-amino-8-bromo-9H-purin-9-yl)acetyl)-N-(3-chloro-2-fluorobenzyl)-4-fluoropyrrolidine-2-carboxamide]: the 50% inhibitory concentration (IC50) is > 1000 nM.

Regarding `CC(C)=C(F)CNC(=O)[C@@H]1C[C@H]2C[C@H]2N1C(=O)Cn1cnc2c(N)ncnc21` [Compound 111b, (1R,3S,5R)-2-(2-(6-amino-9H-purin-9-yl)acetyl)-N-(2-fluoro-3-methylbut-2-en-1-yl)-2-azabicyclo[3.1.0]hexane-3-carboxamide], the IC50 lay within 100 to 1000 nM.

For the compound `Nc1ncnc2c1ncn2CC(=O)N1[C@@H]2C[C@@H]2C[C@H]1C(=O)Nc1cncc(Br)n1` [Compound 112b, (1R,3S,5R)-2-(2-(6-amino-9H-purin-9-yl)acetyl)-N-(6-bromopyrazin-2-yl)-2-azabicyclo[3.1.0]hexane-3-carboxamide], the IC50 is < 100 nM.

Turning to `Cc1ccc(Br)nc1NC(=O)[C@@H]1C[C@@]2(C)C[C@H]2N1C(=O)Cn1cnc2c(N)ncnc21` [Compound 113a, (1R,3S,5R)-2-(2-(6-amino-9H-purin-9-yl)acetyl)-N-(6-bromo-3-methylpyridin-2-yl)-5-methyl-2-azabicyclo[3.1.0]hexane-3-carboxamide], the IC50 lay within 100 to 1000 nM.

Regarding `Nc1ncnc2c1c(-c1cccnc1)cn2CC(=O)N1C[C@H](F)C[C@H]1C(=O)NCc1cccc(Cl)c1F` [Compound 114f, (2S,4R)-1-(2-(4-amino-5-(pyridin-3-yl)-7H-pyrrolo[2,3-d]pyrimidin-7-yl)acetyl)-N-(3-chloro-2-fluorobenzyl)-4-fluoropyrrolidine-2-carboxamide], the IC50 was < 100 nM.

Take `NCc1cccc(-c2cn(CC(=O)N3C[C@H](F)C[C@H]3C(=O)NCc3cccc(Cl)c3F)c3ncnc(N)c23)c1` [Compound 115e, (2S,4R)-1-(2-(4-amino-5-(3-(aminomethyl)phenyl)-7H-pyrrolo[2,3-d]pyrimidin-7-yl)acetyl)-N-(3-chloro-2-fluorobenzyl)-4-fluoropyrrolidine-2-carboxamide]: the half-maximal inhibitory concentration (IC50) lay within 100 to 1000 nM.

For the compound `Nc1ncnc2c1c(Br)cn2CC(=O)N1C[C@H](F)C[C@H]1C(=O)NCc1cccc(Cl)c1F` [Compound 116b, (2S,4R)-1-(2-(4-amino-5-bromo-7H-pyrrolo[2,3-d]pyrimidin-7-yl)acetyl)-N-(3-chloro-2-fluorobenzyl)-4-fluoropyrrolidine-2-carboxamide], the concentration for half-maximal inhibition (IC50) fell in the range of 100 to 1000 nM.

As to `Cc1ncc(-c2cn(CC(=O)N3C[C@H](F)C[C@H]3C(=O)NCc3cccc(Cl)c3F)c3ncnc(N)c23)cn1` [Compound 117d, (2S,4R)-1-(2-(4-amino-5-(2-methylpyrimidin-5-yl)-7H-pyrrolo[2,3-d]pyrimidin-7-yl)acetyl)-N-(3-chloro-2-fluorobenzyl)-4-fluoropyrrolidine-2-carboxamide], the IC50 fell in the range of 100 to 1000 nM.

Take `Cc1ncc(-c2cn(CC(=O)N3C[C@H](F)C[C@H]3C(=O)Nc3nc(Br)ccc3C)c3ncnc(N)c23)cn1` [Compound 118a, (2S,4R)-1-(2-(4-amino-5-(2-methylpyrimidin-5-yl)-7H-pyrrolo[2,3-d]pyrimidin-7-yl)acetyl)-N-(6-bromo-3-methylpyridin-2-yl)-4-fluoropyrrolidine-2-carboxamide]: the half-maximal inhibitory concentration (IC50) was > 1000 nM.
